Test results taken from publication PMC9250534, “Synthesis and direct assay of large macrocycle diversities by combinatorial late-stage modification at picomole scale” (Nature Communications, 2022).
Numbered stars: 1 amine (or outer) side, 2 acyl side, 3 side chain; on linkers, the order of the positions; unused ones are H or OH. Bridge positions count the residues as written; N and C are the ends. Square brackets hold non-standard residues; d marks the D form. Peptide text beside a SMILES is read from it. * marks the point of attachment. ξ: configuration not given here. Pro(cis-4-NH-(E)-Cinnamoyl) = O=C(/C=C/c1ccccc1)N[C@@H]1CN[C@H](C(=O)O)C1; Pro(cis-4-NHBenzoyl(4-Cl)) = O=C(N[C@@H]1CN[C@H](C(=O)O)C1)c1ccc(Cl)cc1; ξPro(4-NHCO(5-Cl-2-thienyl)) = O=C(NC1CNC(C(=O)O)C1)c1ccc(Cl)s1; 2Thenoyl(5-Cl) = O=C(c1ccc(Cl)s1)*; Benzoyl(4-Cl) = O=C(c1ccc(Cl)cc1)*; Cysteamide = C(CS[*:3])N[*:1]; X1 = O=C(/C=C/c1ccccc1)*; Api = NC1(C(=O)O)CCNCC1; Dap = NC[CH](N)C(=O)O; Mpa = O=C(O)CCS

Molecular target: MDM2 (Homo sapiens, UniProt Q00987)
Test: MDM2 binding screen: displacement of fluorescent p53 peptide probe FP53 (fluorescence polarization)
Conditions: for fraction fluorescent probe displaced, Screen: initial screen; for fraction fluorescent probe displaced, Screen / fraction fluorescent probe displaced, Replicate: crude macrocycle reactions
Description: We screened Library 2 in 384-microwell plates by dispensing the target protein MDM2 and reporter peptide into the wells containing the macrocycle reactions.
The products were screened for displacement of a p53-based fluorescent peptide from human MDM2. Final macrocycle concentrations were 10 µM. For each macrocycle, the MDM2 binding was measured once.
One fluorescence anisotropy reading was taken with a Tecan Infinite F200 Pro fluorescence plate reader (excitation at 485 nm, emission at 535 nm) at 25 °C. Data was collected and exported using the Tecan Infinite M200 Pro instrument software. The data was analyzed by Excel (version 2016).

MDM2, sequence (Q00987 whole entry): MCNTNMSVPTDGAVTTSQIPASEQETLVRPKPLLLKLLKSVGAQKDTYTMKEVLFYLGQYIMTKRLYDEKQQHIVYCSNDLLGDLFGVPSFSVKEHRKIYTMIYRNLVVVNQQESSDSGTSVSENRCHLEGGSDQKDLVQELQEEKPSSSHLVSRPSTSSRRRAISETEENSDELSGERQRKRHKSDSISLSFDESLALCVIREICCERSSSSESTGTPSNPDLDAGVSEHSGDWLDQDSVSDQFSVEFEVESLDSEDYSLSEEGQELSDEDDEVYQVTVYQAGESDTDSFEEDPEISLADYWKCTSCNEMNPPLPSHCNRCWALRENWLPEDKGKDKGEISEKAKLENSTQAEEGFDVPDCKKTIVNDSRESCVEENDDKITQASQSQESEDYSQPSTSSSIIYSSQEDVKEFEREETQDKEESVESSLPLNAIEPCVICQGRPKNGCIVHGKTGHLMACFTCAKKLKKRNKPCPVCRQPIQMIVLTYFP

fraction fluorescent probe displaced, Screen (Acid 25)	fraction fluorescent probe displaced, Replicate (Acid 25)	fraction fluorescent probe displaced, Screen (Acid 14)	fraction fluorescent probe displaced, Replicate (Acid 14)	Compound	further results
-0.07	0.0465			O=C1CCSSCCNC(=O)C2CN(C(=O)c3ccc(Cl)cc3)CCN2C(=O)C(Cc2ccccc2)NC(=O)CCN1 (mixture of isomers) [X B2 F D7 Acid 25]	
		-0.00483	0.0465	O=C1CCSSCCNC(=O)C(Cc2ccccc2)NC(=O)C2CN(C(=O)c3ccc(Cl)s3)CCN2C(=O)c2cccc(c2)CN1 (mixture of isomers) [X B5 D7 F Acid 14]	
-0.00813	0.17			O=C1CCSSCCNC(=O)C2CN(C(=O)c3ccc(Cl)cc3)CCN2C(=O)C(Cc2ccccc2)NC(=O)c2cccc(c2)CN1 (mixture of isomers) [X B5 F D7 Acid 25]	
-0.04	0.07			O=C1CCNC(=O)C2CN(C(=O)c3ccc(Cl)cc3)CCN2C(=O)CCSSCCNC(=O)C(Cc2ccccc2)N1 (mixture of isomers) [X D7 B2 F Acid 25]	
		0.11	0.17	O=C1NCCSSCCC(=O)N2CCN(C(=O)c3ccc(Cl)s3)CC2C(=O)NC(Cc2ccccc2)C(=O)NCc2cccc1c2 (mixture of isomers) [X D7 F B5 Acid 14]	
0.61	0.58			O=C1NCCSSCCC(=O)N2CCN(C(=O)c3ccc(Cl)cc3)CC2C(=O)NC(Cc2c[nH]c3ccccc23)C(=O)NCc2cccc1c2 (mixture of isomers) [X D7 W B5 Acid 25]	
0.09	0.07			O=C1CCSSCCNC(=O)c2cccc(c2)CNC(=O)C2CN(C(=O)c3ccc(Cl)cc3)CCN2C(=O)C(Cc2ccccc2)N1 (mixture of isomers) [X F D7 B5 Acid 25]	

More lines, now with the values behind:

Compound	fraction fluorescent probe displaced, Screen (Acid 25)	fraction fluorescent probe displaced, Replicate (Acid 25)	fraction fluorescent probe displaced, Screen (Acid 14)	fraction fluorescent probe displaced, Replicate (Acid 14)	further results
O=C1CCSSCCNC(=O)C(Cc2c[nH]c3ccccc23)NC(=O)C2CN(C(=O)c3ccc(Cl)cc3)CCN2C(=O)CCN1 (mixture of isomers) [X B2 D7 W Acid 25]	0.15	0.07			
O=C1CCSSCCNC(=O)C2CN(C(=O)c3ccc(Cl)s3)CCN2C(=O)C(Cc2c[nH]c3ccccc23)NC(=O)CCN1 (mixture of isomers) [X B2 W D7 Acid 14]			0.23	0.10	
O=C1CCSSCCNC(=O)C(Cc2ccccc2)NC(=O)C2CN(C(=O)C=Cc3ccccc3)CCN2C(=O)c2cccc(c2)CN1 (mixture of isomers) [X B5 D7 F Acid 91]					fraction fluorescent probe displaced, Screen (Acid 91): -0.10; fraction fluorescent probe displaced, Replicate (Acid 91): -0.00827
O=C1NC(Cc2c[nH]c3ccccc23)C(=O)NCCSSCCC(=O)N2CCN(C(=O)c3ccc(Cl)cc3)CC2C(=O)N2CCCC1C2 (mixture of isomers) [X D7 B4 W Acid 25]	0.25	0.25			
O=C1CCSSCCNC(=O)C2CCCN2C(=O)C2CN(C(=O)C=Cc3ccccc3)CCN2C(=O)C(Cc2ccccc2)N1 (mixture of isomers) [X F D7 B1 Acid 91]					fraction fluorescent probe displaced, Screen (Acid 91): -0.0241; fraction fluorescent probe displaced, Replicate (Acid 91): -0.06
O=C1CCSSCCNC(=O)C2CN(C(=O)C=Cc3ccccc3)CCN2C(=O)C2CCCN2C(=O)C(Cc2c[nH]c3ccccc23)N1 (mixture of isomers) [X W B1 D7 Acid 91]					fraction fluorescent probe displaced, Screen (Acid 91): 0.22; fraction fluorescent probe displaced, Replicate (Acid 91): 0.07
O=C1CCSSCCNC(=O)C2CN(C(=O)c3ccc(Cl)s3)CCN2C(=O)CCNC(=O)C(Cc2c[nH]c3ccccc23)N1 (mixture of isomers) [X W B2 D7 Acid 14]			0.08	0.17	
O=C1CCSSCCNC(=O)C2CCCN2C(=O)C2CN(C(=O)C=Cc3ccccc3)CCN2C(=O)C(Cc2c[nH]c3ccccc23)N1 (mixture of isomers) [X W D7 B1 Acid 91]					fraction fluorescent probe displaced, Screen (Acid 91): -0.08; fraction fluorescent probe displaced, Replicate (Acid 91): 0.0168
CC(C)=CCCC(C)CC(=O)NCC1NC(=O)C2CCCN2C(=O)CCSSCCNC(=O)C(Cc2c[nH]c3ccccc23)NC1=O (mixture of isomers) [X-B1-D3-W + A84]					fraction fluorescent probe displaced (10 µM macrocycle concentration, crude acylated macrocycle (scaffold Mpa-AA1-AA2-AA3 x carboxylic acid), p53-based fluorescent peptide, human MDM2): 0.05085
O=C(NC[C@@H]1NC(=O)[C@@H]2CCCN2C(=O)CCSSCCNC(=O)[C@H](Cc2ccccc2)NC1=O)c1ccc(Cl)cc1 [X B1 D3 F Acid 25] ([Mpa]P[Dap](Benzoyl(4-Cl))F-Cysteamide; disulfide 1-C)	0.22	0.22			
O=C(/C=C/c1ccccc1)NC[C@@H]1NC(=O)[C@@H]2CCCN2C(=O)CCSSCCNC(=O)[C@H](Cc2ccccc2)NC1=O [X B1 D3 F Acid 91] ([Mpa]P[Dap](X1)F-Cysteamide; disulfide 1-C)					fraction fluorescent probe displaced, Screen (Acid 91): 0.08; fraction fluorescent probe displaced, Replicate (Acid 91): 0.0168
O=C(NC[C@@H]1NC(=O)[C@@H]2CCCN2C(=O)CCSSCCNC(=O)[C@H](Cc2c[nH]c3ccccc23)NC1=O)c1ccc(Cl)s1 [X B1 D3 W Acid 14] ([Mpa]P[Dap](2Thenoyl(5-Cl))W-Cysteamide; disulfide 1-C)			0.17	0.10	
O=C(NCC1NC(=O)C2CCCN2C(=O)CCSSCCNC(=O)C(Cc2c[nH]c3ccccc23)NC1=O)c1ccc(Cl)cc1 (stereo not drawn) [X B1 D3 W Acid 25] ([Mpa]P[Dap](Benzoyl(4-Cl))W-Cysteamide; disulfide 1-C; configuration not given here)	0.22	0.20			
O=C(/C=C/c1ccccc1)NC[C@@H]1NC(=O)[C@@H]2CCCN2C(=O)CCSSCCNC(=O)[C@H](Cc2c[nH]c3ccccc23)NC1=O [X B1 D3 W Acid 91] ([Mpa]P[Dap](X1)W-Cysteamide; disulfide 1-C)					fraction fluorescent probe displaced, Screen (Acid 91): 0.11; fraction fluorescent probe displaced, Replicate (Acid 91): 0.07
O=C(N[C@H]1C[C@H]2C(=O)N[C@@H](Cc3ccccc3)C(=O)NCCSSCCC(=O)N3CCC[C@H]3C(=O)N2C1)c1ccc(Cl)cc1 [X B1 D5 F Acid 25] ([Mpa]P[Pro(cis-4-NHBenzoyl(4-Cl))]F-Cysteamide; disulfide 1-C)	0.16	0.15			
O=C(NC1CC2C(=O)NC(Cc3c[nH]c4ccccc34)C(=O)NCCSSCCC(=O)N3CCCC3C(=O)N2C1)c1ccc(Cl)s1 (stereo not drawn) [X B1 D5 W Acid 14] ([Mpa]P[ξPro(4-NHCO(5-Cl-2-thienyl))]W-Cysteamide; disulfide 1-C; configuration not given here)			0.28	0.0465	
O=C(/C=C/c1ccccc1)N[C@H]1C[C@H]2C(=O)N[C@@H](Cc3c[nH]c4ccccc34)C(=O)NCCSSCCC(=O)N3CCC[C@H]3C(=O)N2C1 [X B1 D5 W Acid 91] ([Mpa]P[Pro(cis-4-NH-(E)-Cinnamoyl)]W-Cysteamide; disulfide 1-C)					fraction fluorescent probe displaced, Screen (Acid 91): 0.03; fraction fluorescent probe displaced, Replicate (Acid 91): 0.04
O=C1NCCSSCCC(=O)N2CCC[C@H]2C(=O)NC2(CCN(C(=O)c3ccc(Cl)s3)CC2)C(=O)N[C@H]1Cc1ccccc1 [X B1 D6 F Acid 14] ([Mpa]P[Api](2Thenoyl(5-Cl))F-Cysteamide; disulfide 1-C)			-0.0116	0.07	
O=C1NCCSSCCC(=O)N2CCC[C@H]2C(=O)NC2(CCN(C(=O)/C=C/c3ccccc3)CC2)C(=O)N[C@H]1Cc1ccccc1 [X B1 D6 F Acid 91] ([Mpa]P[Api](X1)F-Cysteamide; disulfide 1-C)					fraction fluorescent probe displaced, Screen (Acid 91): -0.10; fraction fluorescent probe displaced, Replicate (Acid 91): 0.05
O=C1NCCSSCCC(=O)N2CCC[C@H]2C(=O)NC2(CCN(C(=O)/C=C/c3ccccc3)CC2)C(=O)N[C@H]1Cc1c[nH]c2ccccc12 [X B1 D6 W Acid 91] ([Mpa]P[Api](X1)W-Cysteamide; disulfide 1-C)					fraction fluorescent probe displaced, Screen (Acid 91): -0.08; fraction fluorescent probe displaced, Replicate (Acid 91): -0.08
O=C1NCCSSCCC(=O)N2CCCC2C(=O)N2CCN(C(=O)c3ccc(Cl)cc3)CC2C(=O)NC1Cc1c[nH]c2ccccc12 (stereo not drawn) [X B1 D7 W Acid 25]	0.09	0.10			
O=C(NC[C@@H]1NC(=O)[C@H](Cc2ccccc2)NC(=O)[C@@H]2CCCN2C(=O)CCSSCCNC1=O)c1ccc(Cl)s1 [X B1 F D3 Acid 14] ([Mpa]PF[Dap](2Thenoyl(5-Cl))-Cysteamide; disulfide 1-C)			0.08	0.10	
O=C(NC[C@@H]1NC(=O)[C@H](Cc2ccccc2)NC(=O)[C@@H]2CCCN2C(=O)CCSSCCNC1=O)c1ccc(Cl)cc1 [X B1 F D3 Acid 25] ([Mpa]PF[Dap](Benzoyl(4-Cl))-Cysteamide; disulfide 1-C)	0.09	0.20			
O=C(NC1CC2C(=O)NCCSSCCC(=O)N3CCCC3C(=O)NC(Cc3ccccc3)C(=O)N2C1)c1ccc(Cl)s1 (stereo not drawn) [X B1 F D5 Acid 14] ([Mpa]PF[ξPro(4-NHCO(5-Cl-2-thienyl))]-Cysteamide; disulfide 1-C; configuration not given here)			0.11	0.07	
O=C1NC2(CCN(C(=O)c3ccc(Cl)s3)CC2)C(=O)NCCSSCCC(=O)N2CCCC2C(=O)NC1Cc1ccccc1 (stereo not drawn) [X B1 F D6 Acid 14] ([Mpa]PF[Api](2Thenoyl(5-Cl))-Cysteamide; disulfide 1-C; configuration not given here)			0.08	0.07	
